Experimental data as given in patent US20220054513A1, “COMBINATION COMPOSITIONS COMPRISING A BETA-LACTAMASE INHIBITOR” (VenatoRx Pharmaceuticals, Inc., priority 2018, published 2022).

Test system: carbapenem resistant Enterobacteriaceae (CRE)
Experiment: MIC of cefiderocol with Compound 1 vs approved BL/BLI combinations, 120 CRE isolates
Details: IDM
Description: A panel of 30 strains of characterized Enterobacteriaceae isolates produce Ambler class A, B, C, and D β-lactamase were used. […] IDM was prepared by adding 100 g of chelex (a chelating agent) to 1 L of sterile CAMBH and stirring for 2 hours. The chelex treated media was then filtered using a 0.2 μm filter and divalent Ca, Mg, and Zn are added back at relevant concentrations. The pH was adjusted to 7.2 using HCl and the media was filtered again to ensure sterility. This created a medium that was devoid of iron but retains appropriate concentration of other cations and was necessary for evaluating the activity of cefiderocol originating from its uptake by bacterial iron transporters. Bacteria strains were grown for 3-5 hours in CAMHB and IDM. Cefiderocol was added either to a microtiter plate in 2-fold serial dilutions in CAMHB and in parallel in IDM. […] Once the test articles were added the plates were inoculated according to CLSI broth microdilution method.
The challenge set of organisms consisted of a variety of Enterobacteriaceae species expressing IMP (n=30), NDM (30), VIM (15), KPC (n=30), and AmpC (n=15).

CC(C)(O/N=C(\C(=O)N[C@@H]1C(=O)N2C(C(=O)[O-])=C(C[N+]3(CCNC(=O)c4ccc(O)c(O)c4Cl)CCCC3)CS[C@H]12)c1csc(N)n1)C(=O)O [FDC, cefiderocol]
MIC (Klebsiella oxytoca, Klebsiella oxytoca 847539 (CTX-M-2, KPC)): 1 µg/mL | MIC (Klebsiella oxytoca, Klebsiella oxytoca 1274060 (IMP-4)): 0.059 µg/mL | MIC (Klebsiella oxytoca, Klebsiella oxytoca 1417076 (IMP-8)): 4 µg/mL | MIC (Klebsiella oxytoca, Klebsiella oxytoca 1417077 (IMP-8)): 4 µg/mL | MIC (Klebsiella oxytoca, Klebsiella oxytoca 1585615 (IMP-4)): 0.25 µg/mL | MIC (Klebsiella oxytoca, Klebsiella oxytoca 1622674 (VIM-44)): 1 µg/mL | MIC (Klebsiella oxytoca, Klebsiella oxytoca IHMA 871515 (IMP, KPC-2, SHV-12)): 1 µg/mL | MIC (Klebsiella oxytoca, Klebsiella oxytoca IHMA 871516 (IMP, KPC-2, SHV-12)): 0.059 µg/mL | MIC (Klebsiella oxytoca, Klebsiella oxytoca IHMA 871518 (IMP, KPC-2, SHV-12)): 1 µg/mL | MIC (Klebsiella pneumoniae, Klebsiella pneumoniae 845661 (KPC-3)): 1 µg/mL | MIC (Klebsiella pneumoniae, Klebsiella pneumoniae 845662 (KPC-3)): 4 µg/mL | MIC (Klebsiella pneumoniae, Klebsiella pneumoniae 845665 (KPC-3)): 1 µg/mL | MIC (Klebsiella pneumoniae, Klebsiella pneumoniae 845667 (KPC-3)): 1 µg/mL | MIC (Klebsiella pneumoniae, Klebsiella pneumoniae 845670 (KPC-3)): 0.25 µg/mL | MIC (Klebsiella pneumoniae, Klebsiella pneumoniae 845904 (KPC-3)): 2 µg/mL | MIC (Klebsiella pneumoniae, Klebsiella pneumoniae 847204 (KPC-2)): 0.5 µg/mL | MIC (Klebsiella pneumoniae, Klebsiella pneumoniae 847375 (SHV-12, KPC-2)): 1 µg/mL | MIC (Klebsiella pneumoniae, Klebsiella pneumoniae 847378 (SHV-12, KPC-2)): 4 µg/mL | MIC (Klebsiella pneumoniae, Klebsiella pneumoniae 847379 (CTX-M-2, KPC-2)): 0.125 µg/mL | MIC (Klebsiella pneumoniae, Klebsiella pneumoniae 847383 (KPC-2)): 2 µg/mL | MIC (Klebsiella pneumoniae, Klebsiella pneumoniae 847384 (SHV-12, KPC-2)): 1 µg/mL | MIC (Klebsiella pneumoniae, Klebsiella pneumoniae 847387 (SHV-12, KPC-2)): 2 µg/mL | MIC (Klebsiella pneumoniae, Klebsiella pneumoniae 847747 (CTX-M-2, KPC)): 0.5 µg/mL | MIC (Klebsiella pneumoniae, Klebsiella pneumoniae 848561 (SHV-11, CTX-M-3, KPC)): 2 µg/mL | MIC (Klebsiella pneumoniae, Klebsiella pneumoniae 848562 (SHV-11, KPC-3)): 1 µg/mL | MIC (Klebsiella pneumoniae, Klebsiella pneumoniae 848563 (KPC-3)): 0.5 µg/mL | MIC (Klebsiella pneumoniae, Klebsiella pneumoniae 848566 (SHV-11, KPC-3)): 1 µg/mL | MIC (Klebsiella pneumoniae, Klebsiella pneumoniae 848600 (KPC-3)): 1 µg/mL | MIC (Klebsiella pneumoniae, Klebsiella pneumoniae 848788 (KPC-2)): 0.5 µg/mL | MIC (Klebsiella pneumoniae, Klebsiella pneumoniae 848790 (KPC-2)): 2 µg/mL | MIC (Klebsiella pneumoniae, Klebsiella pneumoniae 848791 (SHV-12, KPC-2)): 4 µg/mL | MIC (Klebsiella pneumoniae, Klebsiella pneumoniae 848828 (SHV-12, KPC-2)): 4 µg/mL | MIC (Klebsiella pneumoniae, Klebsiella pneumoniae 848832 (KPC-2)): 0.5 µg/mL | MIC (Klebsiella pneumoniae, Klebsiella pneumoniae 848842 (SHV-2A, KPC-2)): 1 µg/mL | MIC (Klebsiella pneumoniae, Klebsiella pneumoniae 848844 (SHV-11, KPC-2)): 4 µg/mL | MIC (Klebsiella pneumoniae, Klebsiella pneumoniae 890066 (SHV-33; TEM-33; CTX-M-15; IMP-1)): 0.5 µg/mL | MIC (Klebsiella pneumoniae, Klebsiella pneumoniae 1212142 (NDM-6)): 4 µg/mL | MIC (Klebsiella pneumoniae, Klebsiella pneumoniae 1212258 (NDM-6)): 4 µg/mL | MIC (Klebsiella pneumoniae, Klebsiella pneumoniae 1212290 (NDM-6)): 4 µg/mL | MIC (Klebsiella pneumoniae, Klebsiella pneumoniae 1212347 (NDM-6)): 4 µg/mL | MIC (Klebsiella pneumoniae, Klebsiella pneumoniae 1212352 (NDM-6)): 1 µg/mL | MIC (Klebsiella pneumoniae, Klebsiella pneumoniae 1251598 (VIM-26)): 0.5 µg/mL | MIC (Klebsiella pneumoniae, Klebsiella pneumoniae 1251599 (VIM-26)): 0.5 µg/mL | MIC (Klebsiella pneumoniae, Klebsiella pneumoniae 1251600 (VIM-26)): 0.25 µg/mL | MIC (Klebsiella pneumoniae, Klebsiella pneumoniae 1251604 (VIM-26)): 0.25 µg/mL | MIC (Klebsiella pneumoniae, Klebsiella pneumoniae 1277372 (NDM-7)): 2 µg/mL | MIC (Klebsiella pneumoniae, Klebsiella pneumoniae 1277416 (IMP-26)): 0.5 µg/mL | MIC (Klebsiella pneumoniae, Klebsiella pneumoniae 1286102 (NDM-7)): 4 µg/mL | MIC (Klebsiella pneumoniae, Klebsiella pneumoniae 1286206 (NDM-7)): 4 µg/mL | MIC (Klebsiella pneumoniae, Klebsiella pneumoniae 1369220 (NDM-6)): 8 µg/mL | MIC (Klebsiella pneumoniae, Klebsiella pneumoniae 1369251 (NDM-6)): 16 µg/mL | MIC (Klebsiella pneumoniae, Klebsiella pneumoniae 1369306 (NDM-6)): 8 µg/mL | MIC (Klebsiella pneumoniae, Klebsiella pneumoniae 1371650 (NDM-6)): 4 µg/mL | MIC (Klebsiella pneumoniae, Klebsiella pneumoniae 1371730 (NDM-6)): 1 µg/mL | MIC (Klebsiella pneumoniae, Klebsiella pneumoniae 1379123 (NDM-4)): 4 µg/mL | MIC (Klebsiella pneumoniae, Klebsiella pneumoniae 1385577 (NDM-4)): 8 µg/mL | MIC (Klebsiella pneumoniae, Klebsiella pneumoniae 1385586 (NDM-4)): 4 µg/mL | MIC (Klebsiella pneumoniae, Klebsiella pneumoniae 1385622 (NDM-4)): 2 µg/mL | MIC (Klebsiella pneumoniae, Klebsiella pneumoniae 1420892 (IMP-4)): 2 µg/mL | MIC (Klebsiella pneumoniae, Klebsiella pneumoniae 1455463 (NDM-4)): 8 µg/mL | MIC (Klebsiella pneumoniae, Klebsiella pneumoniae 1455545 (NDM-4)): 0.5 µg/mL | MIC (Klebsiella pneumoniae, Klebsiella pneumoniae 1459396 (NDM-7)): 1 µg/mL | MIC (Klebsiella pneumoniae, Klebsiella pneumoniae 1459398 (NDM-7)): 8 µg/mL | MIC (Klebsiella pneumoniae, Klebsiella pneumoniae 1591688 (IMP-4)): 1 µg/mL | MIC (Klebsiella pneumoniae, Klebsiella pneumoniae 1591702 (IMP-4)): 1 µg/mL | MIC (Klebsiella pneumoniae, Klebsiella pneumoniae 1607267 (IMP-4)): 4 µg/mL | MIC (Klebsiella pneumoniae, Klebsiella pneumoniae 1610707 (VIM-24)): 0.25 µg/mL | MIC (Klebsiella pneumoniae, Klebsiella pneumoniae 1621162 (VIM-12)): 0.5 µg/mL | MIC (Klebsiella pneumoniae, Klebsiella pneumoniae CDC-0034 (IMP-4, TEM-1B, SHV-11)): 0.25 µg/mL | MIC (Klebsiella pneumoniae, Klebsiella pneumoniae CDC-0080 (IMP-4, TEM-1B, OKP-B-2, OXA-1, SFO-1)): 0.5 µg/mL | MIC (Klebsiella pneumoniae, Klebsiella pneumoniae IHMA 469384 (IMP-26, SHV-12)): 0.059 µg/mL | MIC (Klebsiella pneumoniae, Klebsiella pneumoniae IHMA 511121 (IMP-26)): 1 µg/mL | MIC (Klebsiella pneumoniae, Klebsiella pneumoniae IHMA 511128 (IMP-26)): 2 µg/mL | MIC (Klebsiella pneumoniae, Klebsiella pneumoniae IHMA 511163 (IMP-26)): 4 µg/mL | MIC (Klebsiella pneumoniae, Klebsiella pneumoniae IHMA 600482 (CTX-M-15, IMP-26)): 2 µg/mL | MIC (Klebsiella pneumoniae, Klebsiella pneumoniae SI-128 (IMP-5)): 2 µg/mL
